Structures are written as SMILES. Activity calls are given as the source filed them.

A short description of data set [1]: Half life in mouse at 1 mg/kg, iv. It is filed as ADME, organism-based. Particulars: in vivo.
Data set [2] deals with RPMI-8226. As to the kind of experiment: Induction of cell cycle arrest at S phase in human RPMI-8226 cells at 0.1 uM incubated for 24 hrs by PI staining based flow cytometry (reference value: 58.5 %). It counts as functional. A general note: Flow cytometry measures light scatter and fluorescence of single cells or particles in a stream.
In data set [3] the test system is RPMI-8226. As to the kind of experiment: Antitumor activity against human RPMI-8226 cells xenografted in Balb/c nude mouse assessed as reduction in tumor volume at 10 to 40 mg/kg, po qd for 21 days administered consecutively. Particulars: dose 10-40 mg/kg, time 21.0 day. It is filed as functional, organism-based. (In general: Xenograft models place foreign cells or tissue in a host animal.)

Regarding `Cn1c([C@@H](Cc2ccccc2)NCc2ccccc2)nc2cc(C(=O)NO)ccc21`, the half-life (usually the time needed for the level to fall by half in the phase considered) in data set [1] was 41.9 min. Also, in the data set on RPMI-8226 [2], the Activity is reported as 54%. In addition, the outcome in the data set on RPMI-8226 [3] was Active.
